The values below come from BindingDB's records for doi:10.1007/s002109900141 (Novartis Pharma, 1999).

Where “and” joins values, the source holds several entries; their conditions need not be identical. Equal entries are not always repeated. *1 amine or outer side, *2 acyl side, *3 side chain or, on linkers, in order; H or OH if unused. Where a SMILES comes first, the peptide text is derived from it. Bridges are numbered along the chain shown (N, C = ends). [ ]: non-standard residue; d: D form. The star is where a group is joined. d1Nal = N[C@H](Cc1cccc2ccccc12)C(=O)O; Asu = N[C@@H](CCCCCC(=O)O)C(=O)O; X1 = O=C(C(N[*:1])S[*:3])[*:2]; Ahp = NCCCCCCC(=O)O; Bn = c1ccc(C*)cc1; Mpa = O=C(O)CCS

Experiment [1] has as its target Somatostatin receptor type 4 (Homo sapiens, UniProt P31391).
Experiment [2] deals with Somatostatin receptor type 5 (Homo sapiens, UniProt P35346).
Experiment [3] concerns the target Somatostatin receptor type 1 (Homo sapiens, UniProt P30872).
Experiment [4] concerns the target Somatostatin receptor type 3 (Homo sapiens, UniProt P32745).
Experiment [5] concerns the target Somatostatin receptor type 2 (Homo sapiens, UniProt P30874).

Chain of Somatostatin receptor type 2 (P30874 whole entry): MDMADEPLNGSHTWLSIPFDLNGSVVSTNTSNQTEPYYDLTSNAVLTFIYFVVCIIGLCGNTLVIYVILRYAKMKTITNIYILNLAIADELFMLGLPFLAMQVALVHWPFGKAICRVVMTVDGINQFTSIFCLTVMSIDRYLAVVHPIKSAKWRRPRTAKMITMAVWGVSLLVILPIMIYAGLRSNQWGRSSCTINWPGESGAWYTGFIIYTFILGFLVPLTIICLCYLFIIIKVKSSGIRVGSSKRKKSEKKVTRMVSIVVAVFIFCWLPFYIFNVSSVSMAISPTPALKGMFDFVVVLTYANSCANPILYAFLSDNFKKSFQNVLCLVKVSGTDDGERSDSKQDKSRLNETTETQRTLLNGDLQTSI
Chain of Somatostatin receptor type 5 (P35346 whole entry): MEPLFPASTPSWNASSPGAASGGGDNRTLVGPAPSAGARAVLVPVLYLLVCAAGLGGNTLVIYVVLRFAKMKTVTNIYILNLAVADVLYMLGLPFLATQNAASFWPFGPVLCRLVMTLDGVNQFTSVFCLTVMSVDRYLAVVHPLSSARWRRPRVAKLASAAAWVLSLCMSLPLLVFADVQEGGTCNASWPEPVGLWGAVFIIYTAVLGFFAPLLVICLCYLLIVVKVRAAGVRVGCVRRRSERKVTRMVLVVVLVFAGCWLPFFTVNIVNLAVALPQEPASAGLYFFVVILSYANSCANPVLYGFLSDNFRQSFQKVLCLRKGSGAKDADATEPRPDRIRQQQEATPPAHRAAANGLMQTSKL
Chain of Somatostatin receptor type 1 (P30872 whole entry): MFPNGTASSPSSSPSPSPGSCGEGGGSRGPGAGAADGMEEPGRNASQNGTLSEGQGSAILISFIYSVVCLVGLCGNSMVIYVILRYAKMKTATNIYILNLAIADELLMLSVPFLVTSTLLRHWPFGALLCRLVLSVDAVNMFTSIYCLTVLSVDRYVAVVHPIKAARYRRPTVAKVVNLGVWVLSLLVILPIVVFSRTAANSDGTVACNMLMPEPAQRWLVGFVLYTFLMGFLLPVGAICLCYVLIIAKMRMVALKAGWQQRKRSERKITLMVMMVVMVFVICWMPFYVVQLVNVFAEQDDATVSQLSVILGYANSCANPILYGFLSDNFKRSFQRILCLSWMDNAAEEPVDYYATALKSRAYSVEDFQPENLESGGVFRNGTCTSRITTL
Chain of Somatostatin receptor type 3 (P32745 whole entry): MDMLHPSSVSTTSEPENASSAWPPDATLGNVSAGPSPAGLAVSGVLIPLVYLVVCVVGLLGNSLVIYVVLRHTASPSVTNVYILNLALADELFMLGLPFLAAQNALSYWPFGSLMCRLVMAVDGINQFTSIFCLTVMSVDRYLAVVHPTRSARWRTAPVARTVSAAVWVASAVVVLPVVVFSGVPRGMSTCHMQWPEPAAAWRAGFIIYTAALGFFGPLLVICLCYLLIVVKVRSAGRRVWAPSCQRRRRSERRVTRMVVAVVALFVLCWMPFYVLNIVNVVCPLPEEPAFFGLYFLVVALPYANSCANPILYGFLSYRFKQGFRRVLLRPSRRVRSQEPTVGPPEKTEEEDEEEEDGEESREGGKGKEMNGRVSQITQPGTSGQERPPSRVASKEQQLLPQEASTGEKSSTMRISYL
Chain of Somatostatin receptor type 4 (P31391 whole entry): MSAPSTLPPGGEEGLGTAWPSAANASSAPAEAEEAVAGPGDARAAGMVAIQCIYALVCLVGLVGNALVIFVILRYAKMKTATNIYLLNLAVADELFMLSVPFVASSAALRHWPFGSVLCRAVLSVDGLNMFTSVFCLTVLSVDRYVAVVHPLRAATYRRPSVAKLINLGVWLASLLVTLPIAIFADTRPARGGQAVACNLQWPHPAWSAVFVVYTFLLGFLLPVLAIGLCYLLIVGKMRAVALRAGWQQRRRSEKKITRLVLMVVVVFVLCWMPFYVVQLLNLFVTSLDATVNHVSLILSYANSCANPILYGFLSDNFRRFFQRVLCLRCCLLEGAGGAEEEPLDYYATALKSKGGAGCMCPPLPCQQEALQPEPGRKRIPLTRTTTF

As for `CC(C)C[C@H](NC(=O)[C@H](C)NC(=O)[C@@H]1CCCN1C(=O)[C@H](CC(N)=O)NC(=O)[C@H](CO)NC(=O)[C@H](CC(N)=O)NC(=O)[C@H](C)NC(=O)[C@@H](N)CO)C(=O)N[C@@H](C)C(=O)N1CCC[C@H]1C(=O)N[C@@H](CCCN=C(N)N)C(=O)N[C@@H](CCC(=O)O)C(=O)N[C@@H](CCCN=C(N)N)C(=O)N[C@@H](CCCCN)C(=O)N[C@@H](C)C(=O)NCC(=O)N[C@H]1CSSC[C@@H](C(=O)O)NC(=O)[C@H](CO)NC(=O)[C@H]([C@@H](C)O)NC(=O)[C@H](Cc2ccc(O)cc2)NC(=O)[C@H]([C@@H](C)O)NC(=O)[C@H](CCCCN)NC(=O)[C@@H](Cc2c[nH]c3ccccc23)NC(=O)[C@H](Cc2ccccc2)NC(=O)[C@H](Cc2ccccc2)NC(=O)[C@H](CC(N)=O)NC(=O)[C@H](CCCCN)NC1=O` [LTT-SRIF28] (H-SANSNPALAPRERKAGCKNFF[dW]KTYTSC-OH; disulfide 17-28), the Ki (as a rule, a dissociation constant, usually derived from enzyme kinetics or from competition with a known ligand) in experiment [1] was 0.42 nM and 0.69 nM and 0.74 nM; in experiment [2] it was 7.58 nM; in experiment [3] it was 0.74 nM and 0.6 nM and 0.52 nM; in experiment [4] it was 0.08 nM and 0.14 nM and 0.54 nM.
Turning to `CC(C)[C@@H]1NC(=O)[C@H](CCCCN)NC(=O)[C@@H](Cc2c[nH]c3ccccc23)NC(=O)[C@H](Cc2ccc(O)cc2)NC(=O)[C@H](C)N(C)C(=O)[C@H](Cc2ccccc2)NC1=O` [seglitide], the Ki in experiment [4] was determined as 20.9 nM. This counts as double-digit nanomolar.
Regarding `C[C@@H](O)[C@@H]1NC(=O)[C@H](Cc2ccc(O)cc2)NC(=O)[C@H]([C@@H](C)O)NC(=O)[C@H](CCCCN)NC(=O)[C@H](Cc2c[nH]c3ccccc23)NC(=O)[C@H](Cc2ccccc2)NC(=O)[C@H](Cc2ccccc2)NC(=O)[C@H](CC(N)=O)NC(=O)[C@H](CCCCN)NC(=O)CCCCC[C@@H](C(=O)O)NC(=O)[C@H](CO)NC1=O` [CGP-23996] (KNFFWKTYTS[Asu]-OH; lactam N-11), the Ki in experiment [1] is 2.39 nM; in experiment [3] it was 3.54 nM; in experiment [4], 0.7 nM.
Consider `C[C@@H](O)[C@@H]1NC(=O)[C@H](CCCCN)NC(=O)[C@@H](Cc2c[nH]c3ccccc23)NC(=O)[C@H](Cc2c[nH]c3ccccc23)NC(=O)[C@H](Cc2ccccc2)NC(=O)CCCCCCNC(=O)[C@H](Cc2ccccc2)NC1=O` [L-362855] (cyclo([Ahp]FW[dW]KTF)), for which the Ki is 83.2 nM in experiment [1], 832 nM in experiment [3] and 5.12 nM in experiment [4].
For the compound `C[C@@H](OCc1ccccc1)[C@@H]1NC(=O)[C@H](CCCCN)NC(=O)[C@@H](Cc2c[nH]c3ccccc23)NC(=O)[C@H](Cc2ccccc2)NC(=O)CCCCCCNC1=O` [c[Aha-Phe-D-Trp-Lys-Thr(Bzl)]] (cyclo([Ahp]F[dW]KT(Bn))), the Ki in experiment [1] worked out at 513 nM; in experiment [3], 331 nM; in experiment [4], 132 nM.
In the case of `C[C@@H](O)[C@@H]1NC(=O)[C@H](CCCCN)NC(=O)[C@H](Cc2c[nH]c3ccccc23)NC(=O)[C@H](Cc2ccccc2)NC(=O)[C@H](Cc2ccccc2)NC(=O)[C@H](CC(N)=O)NC(=O)[C@H](CCCCN)NC(=O)[C@@H](NC(=O)[C@@H]2CCCN2)CSSC[C@@H](C(=O)N[C@@H](CCCCN)C(=O)O)NC(=O)[C@H](CO)NC(=O)[C@H](CO)NC(=O)[C@H](Cc2ccccc2)NC1=O` [Cortistatin(1-14)] (H-PCKNFFWKTFSSCK-OH; disulfide 2-13), the Ki in experiment [1] was 2.69 nM; in experiment [3], 0.85 nM; in experiment [4] it was 0.53 nM.
As to `CC(C)[C@@H]1NC(=O)[C@H](CCCCN)NC(=O)[C@@H](Cc2c[nH]c3ccccc23)NC(=O)[C@H](Cc2ccc(O)cc2)NC(=O)CCSSC(C(=O)N[C@@H](Cc2ccccc2)C(N)=O)NC1=O` (stereo partly specified) [CAS_117580-24-2] ([Mpa]Y[dW]KV[X1]F-NH2; disulfide 1-6), the Ki in experiment [1] came out at 2950 nM; in experiment [3] it was 6760 nM; in experiment [4] it was 22.9 nM.
For `C[C@@H](O)[C@@H]1NC(=O)[C@H](CCCCN)NC(=O)[C@@H](Cc2c[nH]c3ccccc23)NC(=O)[C@H](Cc2ccc(O)cc2)NC(=O)[C@@H](NC(=O)[C@H](N)Cc2ccccc2)CSSC[C@@H](C(=O)N[C@H](CO)[C@@H](C)O)NC1=O` [10-(4-Amino-butyl)-19-(2-amino-3-phenyl-propionylamino)-16-(4-hydroxy-benzyl)-7-(1-hydroxy-ethyl)-13-(1H-indol-3-ylmethyl)-6,9,12,15,18-pentaoxo-1,2-dithia-5,8,11,14,17-pentaaza-cycloicosane-4-carboxylic acid (2-hydroxy-1-hydroxymethyl-propyl)-amide], the Ki is 1290 nM and 513 nM and 676 nM in experiment [1]; 2040 nM and 2690 nM and 1510 nM in experiment [3].
As for `CC(C)[C@@H]1NC(=O)[C@H](CCCCN)NC(=O)[C@@H](Cc2c[nH]c3ccccc23)NC(=O)[C@H](Cc2ccc(O)cc2)NC(=O)[C@@H](NC(=O)[C@H](N)Cc2ccc3ccccc3c2)CSSC[C@@H](C(=O)N[C@H](C(N)=O)[C@@H](C)O)NC1=O` [3-(2-Naphtyl)-D-Ala-L-Cys(1)-L-Tyr-D-Trp-L-Lys-L-Val-L-Cys(1)-L-Thr-NH2], the Ki in experiment [5] came out at 0.37 nM; in experiment [3], 178 nM; in experiment [4], 11.7 nM.
With `CC(C)[C@H](NC(=O)[C@H](CCCCN)NC(=O)[C@@H](Cc1c[nH]c2ccccc12)NC(=O)[C@H](Cc1ccc(O)cc1)NC(=O)[C@H](Cc1ccccc1)NC(=O)[C@H](N)Cc1ccccc1)C(=O)N[C@@H](Cc1ccccc1)C(=O)N[C@H](Cc1cccc2ccccc12)C(N)=O` [BIM 23056] (H-[dF]FY[dW]KVF[d1Nal]-NH2), the Ki was 91.2 nM in experiment [1], 275 nM in experiment [3] and 63.1 nM in experiment [4].
With `C[C@@H](O)[C@@H]1NC(=O)[C@H](CCCCN)NC(=O)[C@@H](Cc2c[nH]c3ccccc23)NC(=O)[C@H](Cc2ccccc2)NC(=O)[C@@H]2CCCN2C(=O)[C@H](Cc2ccccc2)NC1=O` (cyclo(PF[dW]KTF)), the Ki in experiment [1] turned out to be 2290 nM; in experiment [3], 2190 nM; in experiment [4], 107 nM.
Turning to `CC(C)[C@@H]1NC(=O)[C@H](CCCCN)NC(=O)[C@@H](Cc2c[nH]c3ccccc23)NC(=O)[C@H](Cc2ccc(O)cc2)NC(=O)[C@@H](NC(=O)[C@H](N)Cc2ccccc2)CSSC[C@@H](C(=O)N[C@@H](Cc2c[nH]c3ccccc23)C(N)=O)NC1=O` [CAS_71306] (H-[dF]CY[dW]KVCW-NH2; disulfide 2-7), the Ki came out at 107 nM in experiment [1], 224 nM in experiment [3] and 15.1 nM in experiment [4].
Take `C[C@@H](O)[C@H](NC(=O)[C@H](Cc1ccccc1)NC(=O)[C@@H](NC(=O)[C@H](CCCCN)NC(=O)[C@@H](Cc1c[nH]c2ccccc12)NC(=O)[C@H](Cc1ccccc1)NC(=O)[C@H](Cc1ccccc1)NC(=O)[C@H](N)Cc1ccccc1)[C@@H](C)O)C(N)=O` [CAS_133073-82-2] (H-[dF]FF[dW]KTFT-NH2): the Ki in experiment [1] stood at 7.41 nM; in experiment [3], 6.76 nM; in experiment [4], 0.19 nM.
As to `CSCC[C@H](NC(=O)[C@H](CCCN=C(N)N)NC(=O)[C@@H](N)CC(=O)O)C(=O)N1CCC[C@H]1C(=O)N[C@H]1CSSC[C@@H](C(=O)N[C@@H](CCCCN)C(=O)O)NC(=O)[C@H](CO)NC(=O)[C@H](CO)NC(=O)[C@H](Cc2ccccc2)NC(=O)[C@H]([C@@H](C)O)NC(=O)[C@H](CCCCN)NC(=O)[C@H](Cc2c[nH]c3ccccc23)NC(=O)[C@H](Cc2ccccc2)NC(=O)[C@H](Cc2ccccc2)NC(=O)[C@H](CC(N)=O)NC(=O)[C@H](CCCN=C(N)N)NC1=O` [Cortistatin], the Ki in experiment [1] is 0.54 nM and 0.57 nM; in experiment [5], 0.46 nM and 1.41 nM; in experiment [2] it was 0.06 nM and 0.28 nM and 0.42 nM and 0.14 nM; in experiment [3], 0.33 nM and 0.24 nM; in experiment [4] it was 0.13 nM.
With `C[C@@H](O)[C@@H]1NC(=O)[C@H](CCCCN)NC(=O)[C@H](Cc2c[nH]c3ccccc23)NC(=O)[C@H](Cc2ccccc2)NC(=O)[C@H](Cc2ccccc2)NC(=O)[C@H](CC(N)=O)NC(=O)[C@H](CCCCN)NC(=O)[C@@H](NC(=O)[C@@H]2CCCN2)CSSC[C@@H](C(=O)N[C@@H](CCCCN)C(=O)O)NC(=O)[C@H](CO)NC(=O)[C@H](CO)NC(=O)[C@H](Cc2ccc(O)cc2)NC1=O` [CST14-Tyr10] (H-PCKNFFWKTYSSCK-OH; disulfide 2-13), the Ki in experiment [1] was 5.01 nM and 3.63 nM and 6.76 nM; in experiment [5], 1.17 nM and 1.69 nM and 1.23 nM and 1 nM; in experiment [3] it was 4.78 nM and 2.75 nM and 0.91 nM; in experiment [4], 0.95 nM and 1.99 nM and 1.25 nM.
